Here are results for seven compounds from US20120329787A1, “FUNGICIDAL PYRANONES AND OXAZINONES” (E.I. DU PONT DE NEMOURS AND COMPANY, priority 2011, published 2012).

Holding throughout (format): in vivo
One assay deals with Botrytis cinerea. The assay can be described thus: Test A: tomato Botrytis, spray on tomato seedlings the day before inoculation. The note with it: 200 ppm test suspension; for pest or weed control at 200 ppm: Botrytis cinerea, 120 h, read-out: Test A rating (100 = 100% disease control, 0 = no disease control). An excerpt: General protocol for preparing test suspensions for Tests A-I: the test compounds were first dissolved in acetone in an amount equal to 3% of the final volume and then suspended at the desired concentration (in ppm) in acetone and purified water (50/50 mix by volume) containing 250 ppm of the surfactant Trem® 014 (polyhydric alcohol esters). The resulting test suspensions were then used in Tests A-I. Spraying a 200 ppm test suspension to the point of run-off on the test plants was the equivalent of a rate of 500 g/ha. […] (An asterisk “*” next to the rating value indicates a 40 ppm test suspension was used.) The test suspension was sprayed to the point of run-off on tomato seedlings. The following day, the seedlings were inoculated with a spore suspension of Botrytis cinerea (the causal agent of tomato Botrytis) and incubated in a saturated atmosphere at 20° C. for 48 h, and then moved to a growth chamber at 24° C. for 3 additional days, after which time visual disease ratings were made. […] A dash (-) indicates no test results. All results are for 200 ppm except where followed by an asterisk “*”, which indicates a 40 ppm.

Assay [1] concerns Erysiphe graminis f. sp. tritici. Nature of the assay: Test I: wheat powdery mildew, spray on wheat seedlings the day before inoculation. To be noted: 200 ppm test suspension; for pest or weed control at 200 ppm: Blumeria graminis, 168 h, read-out: Test I rating (100 = 100% disease control, 0 = no disease control). An excerpt: General protocol for preparing test suspensions for Tests A-I: the test compounds were first dissolved in acetone in an amount equal to 3% of the final volume and then suspended at the desired concentration (in ppm) in acetone and purified water (50/50 mix by volume) containing 250 ppm of the surfactant Trem® 014 (polyhydric alcohol esters). The resulting test suspensions were then used in Tests A-I. Spraying a 200 ppm test suspension to the point of run-off on the test plants was the equivalent of a rate of 500 g/ha. […] (An asterisk “*” next to the rating value indicates a 40 ppm test suspension was used.) The test suspension was sprayed to the point of run-off on wheat seedlings. The following day, the seedlings were inoculated with a spore dust of Erysiphe graminis f. sp. tritici, (the causal agent of wheat powdery mildew) and incubated in a growth chamber at 20° C. for 7 days, after which time visual disease ratings were made. […] A dash (-) indicates no test results. All results are for 200 ppm except where followed by an asterisk “*”, which indicates a 40 ppm.

The subject of assay [2] is Puccinia recondita f. sp. tritici. Nature of the assay: Test G: wheat leaf rust, spray on wheat seedlings after inoculation (curative). To be noted: 200 ppm test suspension, sprayed after inoculation; for pest or weed control at 200 ppm: Puccinia recondita, 96 h, read-out: Test G rating (100 = 100% disease control, 0 = no disease control). An excerpt: General protocol for preparing test suspensions for Tests A-I: the test compounds were first dissolved in acetone in an amount equal to 3% of the final volume and then suspended at the desired concentration (in ppm) in acetone and purified water (50/50 mix by volume) containing 250 ppm of the surfactant Trem® 014 (polyhydric alcohol esters). The resulting test suspensions were then used in Tests A-I. Spraying a 200 ppm test suspension to the point of run-off on the test plants was the equivalent of a rate of 500 g/ha. […] (An asterisk “*” next to the rating value indicates a 40 ppm test suspension was used.) Wheat seedlings were inoculated with a spore suspension of Puccinia recondita f. sp. tritici (the causal agent of wheat leaf rust) and incubated in a saturated atmosphere at 20° C. for 24 h, and then moved to a growth chamber at 20° C. for 2 days. At the end of this time, the test suspension was sprayed to the point of run-off, and then the seedlings were moved to a growth chamber at 20° C. for 4 days after which time visual disease ratings were made. […] A dash (-) indicates no test results. All results are for 200 ppm except where followed by an asterisk “*”, which indicates a 40 ppm.

Assay [3] has the same test system. Nature of the assay: Test H: wheat leaf rust, spray on wheat seedlings the day before inoculation. To be noted: 200 ppm test suspension, sprayed before inoculation; for pest or weed control at 200 ppm: Puccinia recondita, 168 h, read-out: Test H rating (100 = 100% disease control, 0 = no disease control). From the text: General protocol for preparing test suspensions for Tests A-I: the test compounds were first dissolved in acetone in an amount equal to 3% of the final volume and then suspended at the desired concentration (in ppm) in acetone and purified water (50/50 mix by volume) containing 250 ppm of the surfactant Trem® 014 (polyhydric alcohol esters). The resulting test suspensions were then used in Tests A-I. Spraying a 200 ppm test suspension to the point of run-off on the test plants was the equivalent of a rate of 500 g/ha. […] (An asterisk “*” next to the rating value indicates a 40 ppm test suspension was used.) The test suspension was sprayed to the point of run-off on wheat seedlings. The following day, the seedlings were inoculated with a spore suspension of Puccinia recondita f. sp. tritici (the causal agent of wheat leaf rust) and incubated in a saturated atmosphere at 20° C. for 24 h, and then moved to a growth chamber at 20° C. for 6 days, after which time visual disease ratings were made Results for Tests A-I are given in Table A. […] A dash (-) indicates no test results. All results are for 200 ppm except where followed by an asterisk “*”, which indicates a 40 ppm.

The subject of a further assay is Septoria nodorum. The assay can be described thus: Test E: Septoria glume blotch, spray on wheat seedlings the day before inoculation. To be noted: 200 ppm test suspension; for pest or weed control at 200 ppm: Parastagonospora nodorum, 264 h, read-out: Test E rating (100 = 100% disease control, 0 = no disease control). From the text: General protocol for preparing test suspensions for Tests A-I: the test compounds were first dissolved in acetone in an amount equal to 3% of the final volume and then suspended at the desired concentration (in ppm) in acetone and purified water (50/50 mix by volume) containing 250 ppm of the surfactant Trem® 014 (polyhydric alcohol esters). The resulting test suspensions were then used in Tests A-I. Spraying a 200 ppm test suspension to the point of run-off on the test plants was the equivalent of a rate of 500 g/ha. […] (An asterisk “*” next to the rating value indicates a 40 ppm test suspension was used.) The test suspension was sprayed to the point of run-off on wheat seedlings. […] A dash (-) indicates no test results. All results are for 200 ppm except where followed by an asterisk “*”, which indicates a 40 ppm.

The subject of another assay is Septoria tritici. Nature of the assay: Test F: wheat leaf blotch, spray on wheat seedlings the day before inoculation. The note with it: for pest or weed control at 200 ppm: Zymoseptoria tritici, 504 h, read-out: Test F rating (100 = 100% disease control, 0 = no disease control). From the text:
General protocol for preparing test suspensions for Tests A-I: the test compounds were first dissolved in acetone in an amount equal to 3% of the final volume and then suspended at the desired concentration (in ppm) in acetone and purified water (50/50 mix by volume) containing 250 ppm of the surfactant Trem® 014 (polyhydric alcohol esters). The resulting test suspensions were then used in Tests A-I. Spraying a 200 ppm test suspension to the point of run-off on the test plants was the equivalent of a rate of 500 g/ha. […] (An asterisk “*” next to the rating value indicates a 40 ppm test suspension was used.) The test suspension was sprayed to the point of run-off on wheat seedlings. The following day, the seedlings were inoculated with a spore suspension of Septoria tritici (the causal agent of wheat leaf blotch) and incubated in a saturated atmosphere at 24° C. for 48 h, and then the seedlings were moved to a growth chamber at 20° C. for 19 additional days, after which time visual disease ratings were made. […] A dash (-) indicates no test results. All results are for 200 ppm except where followed by an asterisk “*”, which indicates a 40 ppm.

For the next assay, the system named is Alternaria solani. The assay can be described thus: Test B: tomato early blight, spray on tomato seedlings the day before inoculation. To be noted: 200 ppm test suspension; for pest or weed control at 200 ppm: Alternaria solani, 168 h, read-out: Test B rating (100 = 100% disease control, 0 = no disease control). An excerpt:
General protocol for preparing test suspensions for Tests A-I: the test compounds were first dissolved in acetone in an amount equal to 3% of the final volume and then suspended at the desired concentration (in ppm) in acetone and purified water (50/50 mix by volume) containing 250 ppm of the surfactant Trem® 014 (polyhydric alcohol esters). The resulting test suspensions were then used in Tests A-I. Spraying a 200 ppm test suspension to the point of run-off on the test plants was the equivalent of a rate of 500 g/ha. […] (An asterisk “*” next to the rating value indicates a 40 ppm test suspension was used.) The test suspension was sprayed to the point of run-off on tomato seedlings. The following day, the seedlings were inoculated with a spore suspension of Alternaria solani (the causal agent of tomato early blight) and incubated in a saturated atmosphere at 27° C. for 48 h, and then moved to a growth chamber at 20° C. for 5 days, after which time visual disease ratings were made. […] A dash (-) indicates no test results. All results are for 200 ppm except where followed by an asterisk “*”, which indicates a 40 ppm.

Marks after values point to notes of the source that are not given here.

On to “4-(2-chloro-3,5-dimethoxyphenyl)-3,6-dimethyl-5-(2,4,6-trifluorophenyl)-2H-pyran-2-one [Compound 58]”, for which, in the assay on Botrytis cinerea, the “Test A rating (100 = 100% disease control, 0 = no disease control)” value was 100%. Further, the “Test I rating (100 = 100% disease control, 0 = no disease control)” value in assay [1] was determined as 100%. Further, the “Test G rating (100 = 100% disease control, 0 = no disease control)” value in assay [2] came out at 100%. The “Test H rating (100 = 100% disease control, 0 = no disease control)” value in assay [3] amounted to 100%. Besides, in the assay with Septoria nodorum, the “Test E rating (100 = 100% disease control, 0 = no disease control)” value was 100%. The “Test F rating (100 = 100% disease control, 0 = no disease control)” value in the assay with Septoria tritici (40 ppm test suspension (asterisk)) is reported as 100* %. In addition, in the assay on Alternaria solani, the “Test B rating (100 = 100% disease control, 0 = no disease control)” value was determined as 100%.
With `COc1cc(OC)cc(-c2c(-c3ccccc3F)noc(=O)c2-c2c(F)cc(F)cc2F)c1` [Compound 23, 4-(3,5-dimethoxyphenyl)-3-(2-fluorophenyl)-5-(2,4,6-trifluorophenyl)-6H-1,2-oxazin-6-one], the pest or weed control at 200 ppm amounted to 100% with Botrytis cinerea; 0% in assay [1]; 9% in assay [2]; 100% in assay [3]; 95% with Septoria nodorum; 99% in the assay with Septoria tritici (200 ppm test suspension). Also, the pest or weed control at 200 ppm with Alternaria solani turned out to be 93%.
Turning to `COc1cc(OC)cc(-c2c(C)noc(=O)c2-c2c(F)cc(F)cc2F)c1` [Compound 24], in the assay with Botrytis cinerea, the “Test A rating (100 = 100% disease control, 0 = no disease control)” value was 98%. The “Test I rating (100 = 100% disease control, 0 = no disease control)” value in assay [1] was 99%. Also, in assay [2], the “Test G rating (100 = 100% disease control, 0 = no disease control)” value is reported as 0%. Besides, in the assay on Septoria nodorum, the “Test E rating (100 = 100% disease control, 0 = no disease control)” value is 0%. Besides, the “Test F rating (100 = 100% disease control, 0 = no disease control)” value in the assay on Septoria tritici (200 ppm test suspension) turned out to be 99%. The “Test B rating (100 = 100% disease control, 0 = no disease control)” value with Alternaria solani is on record as 63%.
In the case of `COc1cc(OC)c(Cl)c(-c2c(C)noc(=O)c2-c2c(F)cc(F)cc2F)c1` [Compound 25, 4-(2-chloro-3,5-dimethoxyphenyl)-3-methyl-5-(2,4,6-trifluorophenyl)-6H-1,2-oxazin-6-one], the pest or weed control at 200 ppm in the assay on Botrytis cinerea amounted to 100%; in assay [1] it was 100%; in assay [2] it was 100%; in assay [3] it was 100%; in the assay on Septoria nodorum, 0%; in the assay with Septoria tritici (200 ppm test suspension) it was 100%. Besides, the pest or weed control at 200 ppm with Alternaria solani is 97%.
Take `COc1cc(OC)cc(-c2c(-c3ccccc3F)c(C)oc(=O)c2-c2ccccc2)c1` [Compound 26]: the “Test A rating (100 = 100% disease control, 0 = no disease control)” value in the assay on Botrytis cinerea is given as 99%. The “Test I rating (100 = 100% disease control, 0 = no disease control)” value in assay [1] came out at 27%. The “Test G rating (100 = 100% disease control, 0 = no disease control)” value in assay [2] is listed as 9%. Also, the “Test H rating (100 = 100% disease control, 0 = no disease control)” value in assay [3] turned out to be 100%. Moreover, the “Test E rating (100 = 100% disease control, 0 = no disease control)” value in the assay on Septoria nodorum is 0%. The “Test F rating (100 = 100% disease control, 0 = no disease control)” value in the assay on Septoria tritici (200 ppm test suspension) turned out to be 95%. For the same compound, the “Test B rating (100 = 100% disease control, 0 = no disease control)” value in the assay with Alternaria solani worked out at 93%.
For the compound `COc1cc(OC)c(Cl)c(-c2c(-c3c(F)cc(F)cc3F)c(C)oc(=O)c2C)c1Cl` [Compound 59], the “Test A rating (100 = 100% disease control, 0 = no disease control)” value in the assay on Botrytis cinerea is recorded as 100%. For the same compound, in assay [1], the “Test I rating (100 = 100% disease control, 0 = no disease control)” value is given as 90%. Moreover, in assay [2], the “Test G rating (100 = 100% disease control, 0 = no disease control)” value worked out at 82%. Further, the “Test H rating (100 = 100% disease control, 0 = no disease control)” value in assay [3] was determined as 100%. For the same compound, the “Test E rating (100 = 100% disease control, 0 = no disease control)” value with Septoria nodorum came to 0%. In addition, the “Test B rating (100 = 100% disease control, 0 = no disease control)” value with Alternaria solani is given as 0%.
Take `COc1cc(OC)cc(-c2c(-c3ccccc3F)c(C)oc(=O)c2C)c1` [Compound 60]: the “Test I rating (100 = 100% disease control, 0 = no disease control)” value in assay [1] came to 98%. Also, in assay [2], the “Test G rating (100 = 100% disease control, 0 = no disease control)” value is on record as 96%. Also, the “Test H rating (100 = 100% disease control, 0 = no disease control)” value in assay [3] is on record as 100%. Moreover, the “Test E rating (100 = 100% disease control, 0 = no disease control)” value in the assay with Septoria nodorum came out at 0%. Besides, in the assay on Septoria tritici (200 ppm test suspension), the “Test F rating (100 = 100% disease control, 0 = no disease control)” value turned out to be 100%. The “Test B rating (100 = 100% disease control, 0 = no disease control)” value with Alternaria solani was determined as 26%.
